{"source": "paper PMC6925188", "about": "“PBRM1 acts as a p53 lysine-acetylation reader to suppress renal tumor growth” (Nature Communications, 2019)", "key": {"[1]": {"test_system": "PBRM1-p53 interaction", "experiment": "Co-immunoprecipitation of Flag-PBRM1 and Myc-p53 (anti-Flag M2) in H1299 cells", "type": "cell-based", "excerpt": "Fig. 1 PBRM1 and p53 display a physical association that is enhanced after DNA damage. a U2OS cells (left) and HEK293T cells (right) were transfected with vector or Flag-PBRM1 and harvested for immunoprecipitation with Flag-M2 beads and elution with 3X Flag peptide. […] Lysates were subjected to immunoprecipitation with Flag-M2 beads. […] Lysates were immunoprecipitated with p53 antibody. The bound PBRM1 and p53 were examined by immunoblots. Source data are provided as a Source Data file.\nFor anti-Flag immunoprecipitation, cell pellets harvested from one 10 cm culture dish were resuspended in 500 µl hypotonic buffer (10 mM Tris-HCl, pH 8.0, 1.5 mM MgCl2, 10 mM KCl) with protease and phosphatase inhibitors, 2 μM TSA and 10 mM NAM, and samples were incubated on ice for 15 min. Twenty-five microliters of Triton X-100 was added and samples were vortexed for 10 s. After centrifuging for 30 s at 14,000 × g, supernatants were removed and pellets were resuspended in 100 µl hypertonic buffer (20 mM Tris-HCl pH 8.0, 420 mM KCl, 1.5 mM MgCl2, 20% (v/v) glycerol) with protease and phosphatase inhibitors, 2 μM TSA and 10 mM NAM and vortexed for 10 s. Pellets were incubated on ice for 40 min and vortexed for 15 s every 10 min. After centrifuging for 10 min at 14,000 × g, supernatants were collected and diluted with 300 µl EBC buffer (50 mM Tris-HCl (pH 7.5), 120 mM NaCl, 0.5% NP-40) with protease and phosphatase inhibitors, 2 μM TSA and 10 mM NAM. […] Beads were washed four times with EBC buffer and eluted with 3X Flag peptide (F4799, Sigma-Aldrich) overnight at 4 °C. The input and Flag-elution were analyzed by SDS-PAGE and immunoblot.\nSupplementary Figure 2. […]\na. Vectors, Flag-PBRM1 or Myc-p53 were transfected into H1299 cells as indicated, and treated with 5 µM nicotinamide or vehicle. Lysates were used for anti-Flag immunoprecipitation and 3X Flag peptide elution. The inputs and eluates were immunoblotted with the indicated antibodies. […]\nFlag-PBRM1, wildtype or K382Q mutated Myc-p53 were transfected into H1299 cells with indicated combinations. Lysates were used for anti-Flagimmunoprecipitation followed by Flag peptide elution. […]"}, "[2]": {"test_system": "p53 binding to CDKN1A", "experiment": "ChIP-qPCR, p53 antibody, CDKN1A gene, RCC4 cells", "type": "cell-based", "set-up": "p53 ChIP at CDKN1A-intron / p53 ChIP at CDKN1A-RE1 / p53 ChIP at CDKN1A-TSS: unit not given here", "conditions": "24 h; for p53 ChIP at CDKN1A-RE1 / p53 ChIP at CDKN1A-TSS / p53 ChIP at CDKN1A-intron: 100 μM", "description": "Lysates were analyzed by immunoblots. c RCC4 cells with or without p53 KO were transfected with vector or Flag-PBRM1 at the indicated amounts. […] Cells were harvested for RT-qPCR (g) or ChIP followed by qPCR (h). […] Representative data is shown in i. Quantification of cell cycle phase is shown in j. Source data are provided as a Source Data file.\nChIP assays were performed with the Pierce Agarose ChIP Kit (26156, Thermo Scientific) according to the manufacturer’s instructions with minor revisions. In brief, samples were crosslinked with 1% paraformaldehyde and halted by 125 mM glycine. After washing twice with ice-cold PBS, cells were harvested and suspended in Lysis Buffer 1 and incubated on ice for 10 min. 1 × 10^7 nuclei were resuspended in 500 μl MNase Digestion Buffer containing 6.25 U Micrococcal Nuclease and incubated at 37 °C for 15 min. After the reaction was stopped, nuclei were pelleted by centrifugation and resuspended in 250 μl Lysis Buffer 2. Nuclei were sonicated at 10% amplitude for 10 s twice and incubated on ice for 30 min. After centrifugation, 50 μl supernatant containing the digested chromatin from 2 × 10^6 nuclei was diluted in 1× IP Dilution Buffer and incubated with antibodies (normal rabbit IgG for control, 1 μg FL393 + 1 μg DO-1 for p53 or 2 μg Flag M2 for Flag-PBRM1) overnight at 4 °C. […] of ChIP Grade Protein A/G Plus Agarose was added and incubated for 1 h at 4 °C. The agarose resins were washed once with IP Wash Buffer 1, twice with IP Wash Buffer 2 and once with IP Wash Buffer 3. 150 μl 1× IP Elution Buffer was added to the washed resin and incubated at 65 °C for 30 min with shaking. The eluate was treated with Proteinase K and DNA was extracted with columns provided in the kit."}}, "note": "Marks after values point to notes of the source that are not given here.", "data": [{"smiles": "COc1cc([C@@H]2c3cc4c(cc3[C@@H](O[C@@H]3O[C@@H]5CO[C@@H](C)O[C@H]5[C@H](O)[C@H]3O)[C@H]3COC(=O)[C@H]23)OCO4)cc(OC)c1O", "note": "[Etoposide]", "values": [{"measurement": "PBRM1 and exogenous p53 protein levels", "setting": "[1]; H1299, etoposide 50 μM or bleomycin 10 μg/ml", "result": "neither the PBRM1 nor the exogenous p53 levels changed"}, {"measurement": "PBRM1-p53 interaction", "setting": "[1]; H1299 co-transfected with PBRM1 and p53, etoposide 50 μM", "result": "enhanced"}, {"measurement": "p53 binding to CDKN1A RE1 with PBRM1", "setting": "[2]; 100 μM etoposide, RCC4", "result": "significantly enhanced by wild-type but not BD4* mutant PBRM1"}, {"measurement": "p53 ChIP at CDKN1A-RE1", "setting": "[2]; RCC4-GFP, assay 1", "result": 1.555}, {"measurement": "p53 ChIP at CDKN1A-TSS", "setting": "[2]; RCC4-GFP, assay 1", "result": 0.1782}, {"measurement": "p53 ChIP at CDKN1A-intron", "setting": "[2]; RCC4-GFP, assay 1", "result": 0.077}, {"measurement": "p53 ChIP at CDKN1A-RE1", "setting": "[2]; RCC4-GFP, assay 2", "result": 1.8621}, {"measurement": "p53 ChIP at CDKN1A-TSS", "setting": "[2]; RCC4-GFP, assay 2", "result": 0.1891}, {"measurement": "p53 ChIP at CDKN1A-intron", "setting": "[2]; RCC4-GFP, assay 2", "result": 0.0504}, {"measurement": "p53 ChIP at CDKN1A-RE1", "setting": "[2]; RCC4-GFP, assay 3", "result": 1.9888}, {"measurement": "p53 ChIP at CDKN1A-TSS", "setting": "[2]; RCC4-GFP, assay 3", "result": 0.2677}, {"measurement": "p53 ChIP at CDKN1A-intron", "setting": "[2]; RCC4-GFP, assay 3", "result": 0.06}, {"measurement": "p53 ChIP at CDKN1A-RE1", "setting": "[2]; RCC4-PBRM1-BD4*, assay 1", "result": 1.5332}, {"measurement": "p53 ChIP at CDKN1A-TSS", "setting": "[2]; RCC4-PBRM1-BD4*, assay 1", "result": 0.1764}, {"measurement": "p53 ChIP at CDKN1A-intron", "setting": "[2]; RCC4-PBRM1-BD4*, assay 1", "result": 0.0801}, {"measurement": "p53 ChIP at CDKN1A-RE1", "setting": "[2]; RCC4-PBRM1-BD4*, assay 2", "result": 1.7924}, {"measurement": "p53 ChIP at CDKN1A-TSS", "setting": "[2]; RCC4-PBRM1-BD4*, assay 2", "result": 0.1865}, {"measurement": "p53 ChIP at CDKN1A-intron", "setting": "[2]; RCC4-PBRM1-BD4*, assay 2", "result": 0.0517}, {"measurement": "p53 ChIP at CDKN1A-RE1", "setting": "[2]; RCC4-PBRM1-BD4*, assay 3", "result": 1.8343}, {"measurement": "p53 ChIP at CDKN1A-TSS", "setting": "[2]; RCC4-PBRM1-BD4*, assay 3", "result": 0.221}, {"measurement": "p53 ChIP at CDKN1A-intron", "setting": "[2]; RCC4-PBRM1-BD4*, assay 3", "result": 0.0545}, {"measurement": "p53 ChIP at CDKN1A-RE1", "setting": "[2]; RCC4-PBRM1, assay 1", "result": 1.8428}, {"measurement": "p53 ChIP at CDKN1A-TSS", "setting": "[2]; RCC4-PBRM1, assay 1", "result": 0.2655}, {"measurement": "p53 ChIP at CDKN1A-intron", "setting": "[2]; RCC4-PBRM1, assay 1", "result": 0.0601}, {"measurement": "p53 ChIP at CDKN1A-RE1", "setting": "[2]; RCC4-PBRM1, assay 2", "result": 2.4571}, {"measurement": "p53 ChIP at CDKN1A-TSS", "setting": "[2]; RCC4-PBRM1, assay 2", "result": 0.2336}, {"measurement": "p53 ChIP at CDKN1A-intron", "setting": "[2]; RCC4-PBRM1, assay 2", "result": 0.0759}, {"measurement": "p53 ChIP at CDKN1A-RE1", "setting": "[2]; RCC4-PBRM1, assay 3", "result": 2.4942}, {"measurement": "p53 ChIP at CDKN1A-TSS", "setting": "[2]; RCC4-PBRM1, assay 3", "result": 0.2293}, {"measurement": "p53 ChIP at CDKN1A-intron", "setting": "[2]; RCC4-PBRM1, assay 3", "result": 0.0609}]}]}
